# Source: patent US20230337677A1, “ARYL AND PYRIDYL AMIDE PESTICIDES AND COMPOSITIONS THEREOF” (University of Florida Research Foundation, Incorporated, priority 2019, published 2023)
# How the values were obtained:
# [1] = test system: Aedes aegypti mosquitoes, insecticide-susceptible Orlando strain; format: in vivo; conditions: for 1 h Repellency EC50, μg/cm^2: (OR); for 1 h % Repellency, 100 μg/cm^2: screened at 100 μg/cm^2, strain not given
# Method in brief: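 Sixteen female mosquitoes per glass tube facing netting-shielded filter paper treated with acetone solutions (30-0.01 μg/ml; screen at 100 μg/cm^2), no contact. Proportion on treated side scored up to 60 min, then flight-out checked 30 min; mortality after 24 hr constant exposure.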
# [2] = test system: Aedes aegypti mosquitoes, pyrethroid-resistant Puerto Rico strain; test: Vapor repellency glass tube assay (1 h), resistant strain; format: in vivo; conditions: with resistance ratio (PR)
# [3] = test system: Anopheles gambiae Akron kdr (Akdr) strain, resistant to pyrethroids; test: Topical toxicity (24 hour mortality), An. gambiae Akdr; format: in vivo; conditions: for An. gambiae RR (resistance ratio): 24 h LD50 resistant strain (AKDR)/24 h LD50 susceptible strain (G3); for An. gambiae AKDR LD50: topical application, 24 h mortality, female adults, pyrethroid-resistant Akdr strain
# Method in brief: (§1)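 Females aged 3–6 days received 200 nL of compound in ethanol topically on the thorax, 10 per concentration per replicate, and were kept at 28° C with sugar water.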
# [4] = test system: Aedes aegypti mosquitoes, insecticide-susceptible Orlando strain; test: whole plant or invertebrate; conditions: 24 h; for mortality at 100 µg/cm2: read-out: 24 h % Mortality, 100 μg/cm^2
# [5] = test system: Anopheles gambiae G3 sensitive strain; test: Topical toxicity (24 hour mortality), An. gambiae G3; format: in vivo; conditions: topical application, 24 h mortality, female adults, susceptible strain G3
# Method in brief: as §1
# [6] = test system: Aedes aegypti strain Puerto Rico (PR, resistant to permethrin); test: Topical toxicity (24 hour mortality), Ae. aegypti Puerto Rico; format: in vivo; conditions: for Ae. aegypti RR (resistance ratio): 24 h LD50 resistant strain (PR)/24 h LD50 susceptible strain (OR); for Ae. aegypti PR LD50: topical application, 24 h mortality, female adults, permethrin-resistant Puerto Rico strain
# Method: (§2) The Aedes aegypti strains Orlando (sensitive) as well as the Puerto Rico (PR, resistant to permethrin) were used. The Anopheles gambiae (G3 sensitive strain, as well as Akron kdr (Akdr) strain, resistant to pyrethroids were also assessed. The larvae were provided by the USDA, Gainesville Fl, and raised in a pan with tap water maintained at 28° C. Larvae were fed a ground liver and yeast mixture, and pupae were placed in emergence cages. Adults were held at 28° C. and provided with cotton balls soaked in 10% sugar water for rearing and for all bioassays.
# (§3) Female adults from 3 to 6 days were used for the experiments. The drug was dissolved in ethanol and then applied with a micro-applicator on the thorax, between the legs: 200 nL of drug per female mosquito, with different concentrations of the drug; 10 mosquitos were treated together per concentration per replicate, and put together in a small container with free access to sweet water. Mortality, i.e. no visible movement, was assessed 24 hours after treatment. Every compound was assessed on at least 3 different cohorts of mosquitoes, and the LD50 values and slopes were determined with Probit analysis, corrected with Abbott's formula.
# [7] = test system: Aedes aegypti strain Orlando (sensitive); test: Topical toxicity (24 hour mortality), Ae. aegypti Orlando; format: in vivo; conditions: topical application, 24 h mortality, female adults, susceptible Orlando strain
# Method in brief: as §1
# [8] = test system: Aedes aegypti mosquitoes, insecticide-susceptible Orlando strain; conditions: for 24 h LC50, μg/cm^2: LC50 (OR)
# [9] = test system: Aedes aegypti and Anopheles gambiae female adults; test: Analysis of topical toxicity (statements in words, species not given); format: in vivo; conditions: structure-activity analysis of Table 4
# Method: as §2
# as §3, with “formula. […]” for “formula.”
SMILES,An. gambiae RR (resistance ratio) [3],An. gambiae AKDR LD50 [3] [ng/mg],An. gambiae G3 LD50 [5] [ng/mg],Ae. aegypti RR (resistance ratio) [6],Ae. aegypti OR LD50 [7] [ng/mg],"topical toxicity, statement in words (Example 10) [9]",further results
"CCN(CC)C(=O)c1cccc(C)c1 [DEET, N,N-diethyl-m-toluamide, reference compound]",,,,,,,"1 h Repellency EC50, μg/cm^2 ([1]; 1 h): 35 μg/cm^2; response in glass tube assay (FIG. 1) ([1]; representative response, in words): Mosquitoes moved away from the DEET treated side; 1 h Repellency EC50, μg/cm^2 (RR) [2]: 79 μg/cm^2"
O=C(Nc1cc(Cl)nc(Cl)c1)C(F)F [GMR028],0.7,28.2,43.1,3.2,266,,"1 h % Repellency, 100 μg/cm^2 ([1]; 1 h): 12%; mortality at 100 µg/cm2 [4]: 59%; Ae. aegypti PR LD50 [6]: 854 ng/mg"
O=C(Nc1cc(Cl)nc(Cl)c1)C(F)(F)F [GMR029],1.6,45.3,27.9,1.3,190,,"1 h % Repellency, 100 μg/cm^2 ([1]; 1 h): 42%; mortality at 100 µg/cm2 [4]: 24%; 24 h LC50, μg/cm^2 [8]: 181 μg/cm^2; Ae. aegypti PR LD50 [6]: 238 ng/mg"
O=C(Nc1cc(Cl)nc(Cl)c1)C(F)(F)C(F)(F)F [GMR030],1.5,14.2,9.6,1.0,49,,"1 h % Repellency, 100 μg/cm^2 ([1]; 1 h): 28%; mortality at 100 µg/cm2 [4]: 85%; 24 h LC50, μg/cm^2 [8]: 35 μg/cm^2; Ae. aegypti PR LD50 [6]: 50 ng/mg"
CCOC(=O)Nc1cc(Cl)nc(Cl)c1 [GMR032],3.6,66.0,18.3,,892,promising activity,
CC(C)(C)OC(=O)Nc1cc(Cl)nc(Cl)c1 [GMR033],2.2,46.7,21.4,,1199,promising activity,
O=C(Nc1cc(Cl)nc(Cl)c1)C(F)(C(F)(F)F)C(F)(F)F [GMR053],0.5,2.7,5.8,0.4,17,retained high mortality,Ae. aegypti PR LD50 [6]: 7.10 ng/mg
CCCCCC(=O)Nc1cc(Cl)nc(Cl)c1 [GMR054],,>100,>100,,>3000,reduced activity,
O=C(Nc1cc(Cl)nc(C(F)(F)F)c1)C(F)(F)C(F)(F)C(F)(F)C(F)(F)C(F)(F)F [GMR055],0.4,4.0,11.0,0.6,10.5,,Ae. aegypti PR LD50 [6]: 5.90 ng/mg
O=C(Nc1cc(Br)nc(Br)c1)C(F)(F)C(F)(F)C(F)(F)C(F)(F)C(F)(F)F [GMR056],0.4,3.2,8.6,0.8,15,,Ae. aegypti PR LD50 [6]: 12.10 ng/mg
O=C(Nc1c(F)c(F)nc(F)c1F)C(F)(F)C(F)(F)C(F)(F)C(F)(F)C(F)(F)F [GMR057],0.6,15.7,28.4,0.4,20,,Ae. aegypti PR LD50 [6]: 8.90 ng/mg
CCCCCC(=O)Nc1cc(Cl)nc(C(F)(F)F)c1 [GMR067],,3506,,,3506,reduced activity,
CC(F)(F)C1(C(=O)Nc2cc(Cl)nc(Cl)c2)CC1 [GMR076],,>100,,,719,reduced toxicity,
O=C(Nc1cc(Cl)nc(Cl)c1)C(F)(F)C(F)(F)C(F)(F)C(F)(F)C(=O)Nc1cc(Cl)nc(Cl)c1 [GMR077],,>100,,,5373,reduced activity,
C#C[C@@H]1[C@@H](C(=O)Nc2cc(Cl)nc(Cl)c2)C1(C)C [GMR086],,>50,>50,,>6000,reduced toxicity,
O=C(Nc1cc(Cl)nc(Cl)c1)c1c(F)c(F)c(F)c(F)c1F [GMR089],,>100,>100,,>6000,reduction in toxicity,
"O=C(Nc1cc(Cl)nc(C(F)(F)F)c1)C(F)(C(F)(F)F)C(F)(F)F [GMR092, N-(2-chloro-6-(trifluoromethyl)pyridin-4-yl)-2,3,3,3-tetrafluoro-2-(trifluoromethyl)propanamide]",0.3,3.30,9.60,,8.8,retained high mortality,
CN(C(=O)C(F)(F)C(F)(F)C(F)(F)F)c1cc(Cl)nc(Cl)c1 [GMR095],0.6,775.00,1300.00,,1576,,"1 h Repellency EC50, μg/cm^2 ([1]; 1 h): 10 μg/cm^2; 1 h % Repellency, 100 μg/cm^2 ([1]; 1 h): 84%; mortality at 100 µg/cm2 [4]: 100%; 24 h LC50, μg/cm^2 [8]: 14 μg/cm^2"
C/C=C\C[C@H]1C(=O)CC[C@@H]1CC(=O)Nc1cc(F)c(F)c(F)c1 [GMR098],,>1000,>1000,,>6000,reduced toxicity,"1 h % Repellency, 100 μg/cm^2 ([1]; 1 h): 18%; 24 h % Mortality, 100 μg/cm^2 ([8]; in vivo): 0%"
O=C(Nc1cc(F)c(F)c(F)c1)C(F)(F)C(F)(F)OC(F)(F)F [GMR100],,>1000,>1000,,2374,,"1 h Repellency EC50, μg/cm^2 ([1]; 1 h): 3 μg/cm^2; knockdown in 1 hr repellency test (XXkd) ([1]; screened at 10 μg/cm^2, 1 h, out of 16 females): 10; mortality at 10 µg/cm2 ([4]; read-out: 24 h % Mortality): 21%; 24 h LC50, μg/cm^2 [8]: 15 μg/cm^2"
O=C(NC(=O)c1cc(Cl)nc(Cl)c1)c1cc(Cl)nc(Cl)c1 [GMR117],,,,,>1500,reduced activity,"1 h % Repellency, 100 μg/cm^2 ([1]; 1 h): 62%; vapor repellency / mortality, statement in words (Example 8) ([1]; structure-activity analysis of Table 2): some repellency and mortality; mortality at 100 µg/cm2 [4]: 100%"
"O=C(Nc1c(Cl)cc(C(F)(F)F)cc1Cl)C(F)(F)C(F)(F)F [GMR138, N-(2,6-dichloro-4-(trifluoromethyl)phenyl)-2,2,3,3,3-pentafluoropropanamide]",0.8,90.00,120.00,,57.6,,"1 h Repellency EC50, μg/cm^2 ([1]; 1 h): 5.3 μg/cm^2; 1 h % Repellency, 100 μg/cm^2 ([1]; 1 h): 66%; mortality at 100 µg/cm2 [4]: 100%; 24 h LC50, μg/cm^2 [8]: 0.3 μg/cm^2"
O=C(Nc1cc(Cl)nc(Cl)c1)C(F)(F)Sc1ccc(F)cc1 [GMR147],,,,,1983,reduction in toxicity,
CNC(=O)Oc1ccccc1OC(C)C [Propoxur],63,201,3.2,0.0,3.0,,
